Results taken from patent US7910626B2, “Use of S1P receptor agonists in heart diseases” (Novartis AG, priority 2002, dated 2011).

Key:
[1] = tested on: chronic heart failure; experiment: Chronic heart failure in rabbits after large myocardial infarction; assay type: in vivo; conditions: heart failure induced by large myocardial infarction, i.v. at a dose of from 0.1 to 10 mg/kg
Experimental: The effect of a S1P receptor agonist, e.g. a compound of formula I on chronic heart failure is tested in rabbits where heart failure is induced as a consequence of a large myocardial infarction (R P. Hof et al. J. Cardiovasc. Pharmacol., 1991, 18,361-368). The changes of atrial natriuretic factor or baroflex sensitivity are a reliable indicator of the status of the heart failure in this animal model.

[2] = Acute toxicity p.o. in monkeys; conditions: monkey, in vivo, po
Experimental: (§1) S1P receptor agonists are well tolerated at dosages required for use in accordance with the present invention. For example, FTY720 has an acute LD50 >10 mg/kg p.o. in rats and monkeys.

[3] = Acute toxicity p.o. in rats; conditions: rat, in vivo, po
Experimental: as §1

In the case of `CCCCCCCCc1ccc(CCC(N)(CO)CO)cc1` [Compound A, 2-amino-2-[2-(4-octylphenyl)ethyl]propane-1,3-diol], the “effect on the heart failure” value [1] is reported as “beneficial effect”, the LD50 [2] is reported as greater than 10 mg/kg and the LD50 [3] is reported as greater than 10 mg/kg.
